Measured values taken from US12151019B2, “Compositions for blood storage and transfusions” (Albert Einstein College of Medicine, priority 2020, dated 2024).

Experiment: Loading potential / solubility in PEG400/myristic acid vehicles and in water
Format: physicochemical
Settings: for dissolved material in aqueous solution: aqueous sample compared with Sample 3
Experimental: Vehicles for loading the active ingredient were prepared as illustrated in samples 1-4. Myristic acid (solid flakes) was dissolved in PEG400 upon warming the mixture in a warm water bath. Shaking accelerated the formation of the resulting clear solution. The following four concentrations of myristic acid (MA) in PEG400 were prepared and evaluated. Samples 1, 2, 3 and 4 were all clear solutions when the samples were allowed to attain ambient temperatures. • a. 30 ml of PEG400+1.5 grams of MA (Sample 1) • b. 30 ml of PEG400+3 grams of MA (Sample 2) • c. 30 ml of PEG400+0.75 grams of MA (Sample 3) • d. 30 ml of PEG400+2.25 grams of MA (Sample 4)
The samples as vehicles were loaded with NO enhancing agent. […] Samples 1 and 2 were initially liquid but formed a solid uniform gel over a period of several hours. Sample 3 was prepared by dissolving 0.75 grams of MA in 30 ml's of PEG400 and heating in a water bath (˜60-80 C) for ˜15 minutes. Sample 4 was prepared by dissolving 2.25 grams of MA in 30 mls of PEG400 and heating in a water bath (˜60-80 C) for ˜15 minutes. Both sample 3 and sample 4 were uniform solutions when the heating cycle was finished. Upon cooling sample 3 remained liquid whereas sample 4 formed a uniform gel.
The addition of water to the PEG400/MA based formulation can create a nonuniform emulsion that poses difficulties for topical use.
The Sample 3 solvent system was also tested as a vehicle for loading potential with the following low solubility reagents using the above method: quercetin, berberine, N-acetyl cysteine amide (NACA) and N-acetyl cysteine ethyl ester (NAC-ethylester).

SMILES | dissolved material in aqueous solution | solubility of quercetin in sample 3 or sample 4 (either sample 3 or sample 4 vehicle) | dissolving of added curcumin in PEG400/myristic acid (1.5 grams of Curcumin 95 added to Samples 1, 2, 3 (30 ml PEG400 + MA), warmed, shaken, cooled to ambient)
COc1ccc2cc3[n+](cc2c1OC)CCc1cc2c(cc1-3)OCO2 [berberine] | minimal dissolved material |  | 
O=c1c(O)c(-c2ccc(O)c(O)c2)oc2cc(O)cc(O)c12 [quercetin] | minimal dissolved material | 200-300 mg quercetin in 30 ml | 
COc1cc(/C=C/C(=O)CC(=O)/C=C/c2ccc(O)c(OC)c2)ccc1O [Curcumin 95] |  |  | dissolving of almost all of the added curcumin
